Experimental data reported in ChEMBL document CHEMBL3098110, “Modulating the interaction between CDK2 and cyclin A with a quinoline-based inhibitor” (Bioorg Med Chem Lett, 2014).

What was measured:
[1] = biological target: T1, Cyclin-dependent kinase 2 (Homo sapiens, UniProt P24941)
[2] = biological target: T1, Cyclin-dependent kinase 2; remark: listed apart in the source
Description: Inhibition of CDK2 (unknown origin)-cyclin A interaction preincubated for 30 mins at room temperature followed by incubation at 40 degC for 30 mins by SDS-PAGE analysis

[3] = biological target: T1, Cyclin-dependent kinase 2; remark: listed apart in the source
Description: Displacement of B-Alexa-Fluor647 from CDK2 (unknown origin) by fluorescence polarization assay

[4] = biological target: T1, Cyclin-dependent kinase 2; remark: listed apart in the source
Description: Binding affinity to human CDK2 by isothermal titration calorimetric analysis

| SMILES | Kd [1] [nM] | IC50 [2] [nM] | Ki [3] [nM] | Kd [4] [nM] |
| --- | --- | --- | --- | --- |
| COC(=O)[C@H](Cc1ccc(O)cc1)NC(=O)c1cc(C(=O)NS(C)(=O)=O)c2cc(-c3cccs3)ccc2n1 | > 40000 | > 10000 | > 40000 | – |
| COC(=O)[C@H](Cc1ccc(F)cc1)NC(=O)c1cc(C(=O)O)c2cc(-c3cccc(C(F)(F)F)c3)ccc2n1 | 4000 | > 10000 | 2500 | – |
| COC(=O)[C@H](Cc1ccc(OC)cc1)NC(=O)c1cc(C(=O)O)c2cc(-c3cccc(C(F)(F)F)c3)ccc2n1 | > 40000 | > 10000 | > 40000 | – |
| COC(=O)[C@H](Cc1cccc(O)c1)NC(=O)c1cc(C(=O)O)c2cc(-c3cccc(C(F)(F)F)c3)ccc2n1 | > 40000 | > 10000 | > 40000 | – |
| O=C(NCCc1ccc(O)cc1)c1cc(C(=O)O)c2cc(-c3cccs3)ccc2n1 | > 40000 | > 10000 | > 40000 | – |
| O=C(N[C@@H](Cc1ccc(O)cc1)C(=O)O)c1cc(C(=O)O)c2cc(-c3cccc(C(F)(F)F)c3)ccc2n1 | > 10000 | > 10000 | 12000 | – |
| C[C@H](Cc1ccc(O)cc1)NC(=O)c1cc(C(=O)O)c2cc(-c3cccc(C(F)(F)F)c3)ccc2n1 | 4000 | > 10000 | 2500 | – |
| CCC[C@H](Cc1ccc(O)cc1)NC(=O)c1cc(C(=O)O)c2cc(-c3cccc(C(F)(F)F)c3)ccc2n1 | 400 | > 10000 | 300 | – |
| CNC(=O)[C@H](Cc1ccc(O)cc1)NC(=O)c1cc(C(=O)O)c2cc(/C=C/c3ccc(Cl)cc3)ccc2n1 | 300 | > 10000 | 100 | – |
| CN(C)C(=O)[C@H](Cc1ccc(O)cc1)NC(=O)c1cc(C(=O)O)c2cc(/C=C/c3ccc(Cl)cc3)ccc2n1 | 350 | > 10000 | 160 | – |
| COC[C@H](Cc1ccc(O)cc1)NC(=O)c1cc(C(=O)O)c2cc(-c3cccc(C(F)(F)F)c3)ccc2n1 | 240 | > 10000 | 100 | – |
| COC[C@H](Cc1ccc(O)cc1)NC(=O)c1cc(C(=O)O)c2cc(/C=C/c3ccc(Cl)cc3)ccc2n1 | 25 | > 10000 | < 100 | – |
| COC(=O)[C@H](Cc1ccc(O)cc1)NC(=O)c1cc(C(=O)O)c2cc(-c3cccs3)ccc2n1 | 1100 | > 10000 | 900 | 1000 |
| COC(=O)[C@H](Cc1ccc(O)cc1)NC(=O)c1cc(C(=O)O)c2cc(-c3ccc(Cl)cc3)ccc2n1 | 900 | > 10000 | 900 | – |
| COC(=O)[C@H](Cc1ccc(O)cc1)NC(=O)c1cc(C(=O)O)c2cc(-c3cc(Cl)cc(Cl)c3)ccc2n1 | 320 | > 10000 | 200 | – |
| COC(=O)[C@H](Cc1ccc(O)cc1)NC(=O)c1cc(C(=O)O)c2cc(-c3ccccc3)ccc2n1 | 12000 | > 10000 | 10000 | – |
| COC(=O)[C@H](Cc1ccc(O)cc1)NC(=O)c1cc(C(=O)O)c2cc(N3CCOCC3)ccc2n1 | 2400 | > 10000 | 2800 | – |
| COC(=O)[C@H](Cc1ccc(O)cc1)NC(=O)c1cc(C(=O)O)c2cc(-c3cccc(C(F)(F)F)c3)ccc2n1 | 40 | > 10000 | < 100 | 50 |
| COC(=O)[C@H](Cc1ccc(O)cc1)NC(=O)c1cc(C(=O)O)c2cc(CCc3ccc(Cl)cc3)ccc2n1 | 48 | > 10000 | < 100 | 55 |
| COC(=O)[C@H](Cc1ccc(O)cc1)NC(=O)c1cc(C(=O)O)c2cc(/C=C/c3ccc(Cl)cc3)ccc2n1 | 5 | > 10000 | < 100 | – |
| CCCCCCc1ccc2nc(C(=O)N[C@@H](Cc3ccc(O)cc3)C(=O)OC)cc(C(=O)O)c2c1 | 76 | > 10000 | < 100 | – |
| COC(=O)[C@H](Cc1ccc(O)cc1)NC(=O)c1cc(CO)c2cc(-c3cccc(C(F)(F)F)c3)ccc2n1 | > 40000 | > 10000 | > 40000 | – |
| COC(=O)[C@H](Cc1ccc(O)cc1)NC(=O)c1cc(C(N)=O)c2cc(-c3cccs3)ccc2n1 | > 40000 | > 10000 | > 40000 | – |
